Measurements: patent US20070148136A1, “Methods of using ammonia oxidizing bacteria” (priority 2003, published 2007)
Entries after “also recorded” stand apart in the source; their conditions may differ. Where two headings read alike, the source gives them in different places.

Key:
ammonia monooxygenase = target: T1, ammonia monooxygenase (Nitrosomonas europaea, UniProt Q04507+Q04508); settings: cited from earlier work
T1 construct: endogenous in cells; host or cells: autotrophic ammonia oxidizing bacteria (AAOB), mixed and unspecified, e.g. in waste water
T1 sequence (Q04507 1-276): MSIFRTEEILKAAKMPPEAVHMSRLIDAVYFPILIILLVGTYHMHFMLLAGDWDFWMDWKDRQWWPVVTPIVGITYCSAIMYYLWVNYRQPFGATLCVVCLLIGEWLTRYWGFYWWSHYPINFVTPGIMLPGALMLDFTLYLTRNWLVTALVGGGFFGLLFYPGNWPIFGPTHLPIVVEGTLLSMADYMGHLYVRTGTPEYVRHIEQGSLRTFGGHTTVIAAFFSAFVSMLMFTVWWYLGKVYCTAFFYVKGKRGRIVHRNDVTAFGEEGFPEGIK
T1 sequence (Q04508 26-420): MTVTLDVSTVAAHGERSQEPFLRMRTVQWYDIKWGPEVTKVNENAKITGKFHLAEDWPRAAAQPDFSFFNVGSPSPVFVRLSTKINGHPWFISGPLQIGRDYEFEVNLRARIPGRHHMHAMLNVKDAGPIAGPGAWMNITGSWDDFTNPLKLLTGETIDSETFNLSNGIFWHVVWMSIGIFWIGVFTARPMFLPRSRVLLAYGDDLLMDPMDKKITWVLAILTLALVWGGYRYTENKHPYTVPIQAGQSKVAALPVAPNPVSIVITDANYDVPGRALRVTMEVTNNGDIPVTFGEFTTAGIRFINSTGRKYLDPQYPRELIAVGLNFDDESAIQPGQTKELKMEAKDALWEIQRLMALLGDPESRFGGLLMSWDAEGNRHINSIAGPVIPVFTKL

[1] = test system: local brachial artery vasodilatation; experiment: Local brachial artery vasodilatation after bolus infusion (Rassaf et al.); type: in vivo, human; settings: for relative effectiveness (intravenous NO : SNP : GSNO): ratio, intravenous NO = 1
Experimental: SNP has also been compared to intravenous NO, where intravenous NO, SNP, and S—NO-glutathione (GSNO) were shown by Rassaf et al. to have relative “maximally effective doses” administered as bolus infusions in local brachial artery vasodilatation of 6 μM, 34 nM, and 5 nM respectively. (Rassaf et al., Evidence for in vivo transport of bioactive nitric oxide in human plasma, J. Clin. Invest. 109:1241-1248 (2002).) This puts the relative effectiveness of intravenous NO, SNP, and GSNO at 1:176:1200. There were significant differences in the temporal course of vasodilatation induced through the above treatments. […] Thus GSNO is roughly 7 times more “effective” at getting “NO active species” to peripheral GC than is SNP. Presumably then, a dose of about 0.1 μM/kg/hr of GSNO would have a vasodilatation effect equivalent to 0.75 μM/kg/hr SNP. The basal nitrate excretion is about 1 μM/kg/hr. If we assume that the vasodilatory effects of 0.75 μ/kg/hr SNP are on the “same order” as the indigenous NO already produced, then the 0.1 μkg/hr GSNO represents an increase in “effective NO” of […] over basal levels.

[2] = test system: local brachial artery vasodilatation; settings: bolus infusion, cited from earlier work
Human Mast Cell Adhesion = settings: cited from earlier work
NOS [3] = settings: horse, cited from earlier work
NOS [4] = settings: chronic inhibition of NOS; cited from earlier work
NOS [5] = settings: chronic inhibition of NOS; cited from earlier work; remark: listed apart in the source
NOS [6] = settings: in vivo; cited from earlier work
NO synthesis = settings: in vivo; cited from earlier work
[7] = hyperbaric O2; cited from earlier work
[8] = type 2 diabetics; cited from earlier work
guanylyl cyclase (GC) = target: T2, guanylyl cyclase (GC) (Homo sapiens, UniProt Q02153); settings: read-out: apparent EC50 for guanylyl cyclase activation, cited from earlier work
T2 construct: Soluble Guanylyl Cyclase, in Intact Cerebellar Cells; host or cells: intact cerebellar cells (endogenous)
T2 sequence (Q02153 1-619): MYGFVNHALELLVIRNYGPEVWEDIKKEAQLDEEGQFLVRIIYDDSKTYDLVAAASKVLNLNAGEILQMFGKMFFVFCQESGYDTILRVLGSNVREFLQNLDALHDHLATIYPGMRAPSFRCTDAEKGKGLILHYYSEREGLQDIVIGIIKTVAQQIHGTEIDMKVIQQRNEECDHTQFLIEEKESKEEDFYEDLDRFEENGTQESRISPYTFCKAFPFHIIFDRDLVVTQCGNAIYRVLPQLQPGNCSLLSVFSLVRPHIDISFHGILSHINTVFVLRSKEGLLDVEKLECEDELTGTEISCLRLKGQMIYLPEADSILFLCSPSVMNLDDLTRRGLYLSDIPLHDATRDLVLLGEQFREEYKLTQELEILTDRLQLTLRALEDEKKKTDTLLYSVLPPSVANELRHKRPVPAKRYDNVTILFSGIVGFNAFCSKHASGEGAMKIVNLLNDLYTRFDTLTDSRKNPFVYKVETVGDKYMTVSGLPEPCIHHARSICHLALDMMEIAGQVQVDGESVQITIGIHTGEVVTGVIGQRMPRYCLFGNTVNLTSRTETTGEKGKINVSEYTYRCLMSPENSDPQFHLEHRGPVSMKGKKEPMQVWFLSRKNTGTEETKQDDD
T2 sequence (Q02108 1-690 partner): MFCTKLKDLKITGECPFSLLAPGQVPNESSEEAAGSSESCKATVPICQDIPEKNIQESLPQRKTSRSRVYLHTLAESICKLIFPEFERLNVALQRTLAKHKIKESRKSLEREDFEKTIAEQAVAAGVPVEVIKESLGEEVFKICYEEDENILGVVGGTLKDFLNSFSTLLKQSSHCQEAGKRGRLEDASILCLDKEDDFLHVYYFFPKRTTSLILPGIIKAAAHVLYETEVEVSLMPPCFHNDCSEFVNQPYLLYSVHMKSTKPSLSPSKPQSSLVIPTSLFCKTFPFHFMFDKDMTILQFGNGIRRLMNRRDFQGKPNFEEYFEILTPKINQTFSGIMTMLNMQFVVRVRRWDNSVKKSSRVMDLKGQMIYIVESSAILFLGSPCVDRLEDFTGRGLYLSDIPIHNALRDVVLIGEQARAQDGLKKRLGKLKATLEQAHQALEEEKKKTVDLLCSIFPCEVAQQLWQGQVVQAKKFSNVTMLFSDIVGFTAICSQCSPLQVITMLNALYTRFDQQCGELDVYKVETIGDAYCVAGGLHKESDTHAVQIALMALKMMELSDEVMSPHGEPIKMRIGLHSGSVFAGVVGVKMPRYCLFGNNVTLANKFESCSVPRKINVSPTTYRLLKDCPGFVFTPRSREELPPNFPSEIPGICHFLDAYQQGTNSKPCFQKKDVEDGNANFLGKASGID

[9] = inhaled NO at 80 ppm in >90% O2 (16 μM/min=14 μM/kg/hr); cited from earlier work
[10] = compared with estrogen; cited from earlier work
AAOB = settings: cited from earlier work
[11] = physiologic concentrations of CP; cited from earlier work
[12] = test system: murine macrophage cells (RAW264); settings: CP 2 μM/L in Krebs-Ringer-phosphate, absence of hemoglobin; cited from earlier work

C=CCNC(N)=S [Allylthiourea]
inhibition of ammonia monooxygenase (ammonia monooxygenase): very effective at inhibiting ammonia monooxygenase

N[C@@H](CCC(=O)N[C@@H](CSN=O)C(=O)NCC(=O)O)C(=O)O [GSNO, S-nitrosoglutathione]
effectiveness at getting NO active species to peripheral GC relative to SNP ([1]; GSNO versus SNP): roughly 7 times
relative effectiveness (intravenous NO : SNP : GSNO) [1]: 1200
maximally effective dose, local brachial artery vasodilatation [2]: 0.005 µM
mast cell adhesion (Human Mast Cell Adhesion): strongly down regulated

COC(=O)[C@@H](N)CCCNC(=N)N[N+](=O)[O-] [L-NAME, N(G)-nitro-L-arginine methyl ester]
VCO2max (NOS [3]; L-NAME group (control 62.5)): 61.0 L/min
reduction of cardiac output (NOS [3]; L-NAME group): 12%
fibrosis of heart and kidneys (NOS [4]): generalized fibrosis of the heart and kidneys
total (pancreatic islet) NO production (NOS [5]): can increase NO levels at particular sites; also recorded: increases total pancreatic islet NO production

NC(=NCCC[C@H](N)C(=O)O)N[N+](=O)[O-] [L-NNA, N-nitro-L arginine]
wake-sleep differences in cerebral blood flow (NOS [6]): abolishes wake-sleep differences in cerebral blood flow
reduction in basal temperature following hypoxia (NO synthesis): greatly diminished

N=C(N)NCCC[C@H](N)C(=O)O [L-arginine]
latency to seizure [7]: increase the latency to seizure
forearm blood flow [8]: increases forearm blood flow
insulin sensitivity [8]: increases insulin sensitivity

[N]=O [NO, nitric oxide]
relative effectiveness (intravenous NO : SNP : GSNO) [1]: 1
EC50 (guanylyl cyclase (GC); rapid (˜100 ms) activation): ~45 nM
EC50 (guanylyl cyclase (GC); slow (˜1 to 10 sec) activation): ~20 nM
change in mean arterial pressure [9]: no change in mean arterial pressure
maximally effective dose, local brachial artery vasodilatation ([2]; intravenous): 6 µM

O=[N+]([O-])OCC(CO[N+](=O)[O-])O[N+](=O)[O-] [nitroglycerin]
prevention of bone loss [10]: as effective as estrogen to prevent bone loss

S-nitroso-N-acetylpenicilamine [SNAP]
latency to seizure [7]: significantly shortens

linear alkylbenzene sulfonates [LAS]
toxicity to AAOB (AAOB): toxic to AAOB at ppm levels
toxicity to AAOB (AAOB; listed as linear alkyl benzene sulfonate detergents): killed by ppm levels

B1: CP: ceruloplasmin, the main Cu containing serum protein (protein, UniProt P00450 20-1065, looked up)
Ceruloplasmin: KEKHYYIGIIETTWDYASDHGEKKLISVDTEHSNIYLQNGPDRIGRLYKKALYLQYTDETFRTTIEKPVWLGFLGPIIKAETGDKVYVHLKNLASRPYTFHSHGITYYKEHEGAIYPDNTTDFQRADDKVYPGEQYTYMLLATEEQSPGEGDGNCVTRIYHSHIDAPKDIASGLIGPLIICKKDSLDKEKEKHIDREFVVMFSVVDENFSWYLEDNIKTYCSEPEKVDKDNEDFQESNRMYSVNGYTFGSLPGLSMCAEDRVKWYLFGMGNEVDVHAAFFHGQALTNKNYRIDTINLFPATLFDAYMVAQNPGEWMLSCQNLNHLKAGLQAFFQVQECNKSSSKDNIRGKHVRHYYIAAEEIIWNYAPSGIDIFTKENLTAPGSDSAVFFEQGTTRIGGSYKKLVYREYTDASFTNRKERGPEEEHLGILGPVIWAEVGDTIRVTFHNKGAYPLSIEPIGVRFNKNNEGTYYSPNYNPQSRSVPPSASHVAPTETFTYEWTVPKEVGPTNADPVCLAKMYYSAVEPTKDIFTGLIGPMKICKKGSLHANGRQKDVDKEFYLFPTVFDENESLLLEDNIRMFTTAPDQVDKEDEDFQESNKMHSMNGFMYGNQPGLTMCKGDSVVWYLFSAGNEADVHGIYFSGNTYLWRGERRDTANLFPQTSLTLHMWPDTEGTFNVECLTTDHYTGGMKQKYTVNQCRRQSEDSTFYLGERTYYIAAVEVEWDYSPQREWEKELHHLQEQNVSNAFLDKGEFYIGSKYKKVVYRQYTDSTFRVPVERKAEEEHLGILGPQLHADVGDKVKIIFKNMATRPYSIHAHGVQTESSTVTPTLPGETLTYVWKIPERSGAGTEDSACIPWAYYSTVDQVKDLYSGLIGPLIVCRRPYLKVFNPRRKLEFALLFLVFDENESWYLDDNIKTYSDHPEKVNKDDEEFIESNKMHAINGRMFGNLQGLTMHVGDEVNWYLMGMGNEIDLHTVHFHGHSFQYKHRGVYSSDVFDIFPGTYQTLEMFPRTPGIWLLHCHVTDHIHAGMETTYTVLQNEDTKSG
increase in formation of GSNO from NO and GSH [11]: approximately 100 times
conversion of authentic NO to RSNO (recovered NAC—NO) [12]: ≤ 33%
